The values that follow come from ChEMBL document CHEMBL5614426 (J Med Chem, 2024).

Data set [1] deals with T1, Histone-lysine N-methyltransferase NSD2 (Homo sapiens, UniProt O96028).
T1 sequence (O96028 whole entry): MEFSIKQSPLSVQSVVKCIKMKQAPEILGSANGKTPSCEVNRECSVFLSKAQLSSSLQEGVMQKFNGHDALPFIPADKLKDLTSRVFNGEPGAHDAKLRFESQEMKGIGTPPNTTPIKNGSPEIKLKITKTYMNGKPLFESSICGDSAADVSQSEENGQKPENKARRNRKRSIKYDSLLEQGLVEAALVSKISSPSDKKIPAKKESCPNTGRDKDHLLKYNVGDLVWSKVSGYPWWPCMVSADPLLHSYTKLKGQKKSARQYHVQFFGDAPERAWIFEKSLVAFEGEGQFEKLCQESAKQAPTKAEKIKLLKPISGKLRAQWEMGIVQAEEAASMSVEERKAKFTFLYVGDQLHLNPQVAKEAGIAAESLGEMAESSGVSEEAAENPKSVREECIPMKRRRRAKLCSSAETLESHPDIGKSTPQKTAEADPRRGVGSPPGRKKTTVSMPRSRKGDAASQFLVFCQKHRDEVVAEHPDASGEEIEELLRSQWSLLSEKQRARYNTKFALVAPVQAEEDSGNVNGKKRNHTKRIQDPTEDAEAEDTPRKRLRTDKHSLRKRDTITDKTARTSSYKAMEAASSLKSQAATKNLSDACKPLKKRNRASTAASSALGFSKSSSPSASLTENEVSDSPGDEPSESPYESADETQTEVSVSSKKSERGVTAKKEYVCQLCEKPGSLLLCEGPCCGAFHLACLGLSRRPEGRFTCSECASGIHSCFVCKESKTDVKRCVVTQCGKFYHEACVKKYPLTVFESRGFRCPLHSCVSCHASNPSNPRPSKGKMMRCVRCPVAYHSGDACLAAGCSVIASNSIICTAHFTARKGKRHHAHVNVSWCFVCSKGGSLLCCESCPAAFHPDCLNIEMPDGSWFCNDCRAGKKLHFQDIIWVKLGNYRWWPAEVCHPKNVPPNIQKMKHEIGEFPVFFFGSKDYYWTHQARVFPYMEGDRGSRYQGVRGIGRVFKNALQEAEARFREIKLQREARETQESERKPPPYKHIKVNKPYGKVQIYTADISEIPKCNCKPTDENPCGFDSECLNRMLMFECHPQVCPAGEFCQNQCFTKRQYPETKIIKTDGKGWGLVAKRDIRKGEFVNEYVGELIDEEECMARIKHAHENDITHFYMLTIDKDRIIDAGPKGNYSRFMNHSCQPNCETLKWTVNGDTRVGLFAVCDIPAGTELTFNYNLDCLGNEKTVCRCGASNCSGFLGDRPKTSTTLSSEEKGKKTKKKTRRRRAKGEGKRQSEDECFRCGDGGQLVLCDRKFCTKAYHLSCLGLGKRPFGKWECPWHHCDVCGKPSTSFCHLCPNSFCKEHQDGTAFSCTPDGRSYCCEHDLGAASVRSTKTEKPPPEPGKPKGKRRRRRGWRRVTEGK
In words: Inhibition of NSD2-SET domain (unknown origin).

Data set [2] is described as follows: AUC (0 to last) in mouse at 1 mg/kg, iv measured upto 24 hrs by LC-MS/MS analysis. The note with it: in vivo. It counts as ADME, organism-based.
Data set [3] in a line: Volume of distribution at steady state in mouse at 1 mg/kg, iv measured upto 24 hrs by LC-MS/MS analysis. The note with it: in vivo, read-out: Vdss. It counts as ADME, organism-based.
The nature of data set [4]: MRT (0 to t) in mouse at 1 mg/kg, iv measured upto 24 hrs by LC-MS/MS analysis. It counts as ADME, organism-based. The settings on record: in vivo.
The target in data set [5] is Protein arginine N-methyltransferase 8 (Homo sapiens, UniProt Q9NR22). Nature of the data set: Inhibition of PRMT8 (unknown origin).
Sequence of Protein arginine N-methyltransferase 8 (Q9NR22 whole entry): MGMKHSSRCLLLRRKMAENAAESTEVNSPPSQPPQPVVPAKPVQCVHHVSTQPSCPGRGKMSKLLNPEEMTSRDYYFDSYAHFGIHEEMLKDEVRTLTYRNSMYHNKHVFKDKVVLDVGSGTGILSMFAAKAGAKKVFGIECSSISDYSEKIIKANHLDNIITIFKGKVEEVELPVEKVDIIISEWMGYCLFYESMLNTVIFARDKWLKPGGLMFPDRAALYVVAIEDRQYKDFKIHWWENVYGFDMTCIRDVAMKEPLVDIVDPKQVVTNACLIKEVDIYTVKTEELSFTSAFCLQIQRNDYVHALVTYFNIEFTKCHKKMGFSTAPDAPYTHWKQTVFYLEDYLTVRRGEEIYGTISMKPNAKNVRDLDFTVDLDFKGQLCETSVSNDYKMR
Data set [6] in a line: MRT (0 to t) in mouse at 50 mg/kg, po measured upto 24 hrs by LC-MS/MS analysis. It counts as ADME, organism-based. The settings on record: in vivo.
A short description of data set [7]: AUC (0 to last) in mouse at 50 mg/kg, po measured upto 24 hrs by LC-MS/MS analysis. It counts as ADME, organism-based. The settings on record: in vivo.
Data set [8] is described as follows: Cmax in mouse at 1 mg/kg, iv measured upto 24 hrs by LC-MS/MS analysis. It counts as ADME, organism-based. The settings on record: in vivo.
Data set [9] is described as follows: Half life in mouse at 50 mg/kg, po measured upto 24 hrs by LC-MS/MS analysis. It counts as ADME, organism-based. The note with it: in vivo.
Data set [10] concerns the target DNA (cytosine-5)-methyltransferase 1 (Homo sapiens, UniProt P26358). In words: Inhibition of DNMT1 (unknown origin).
The nature of data set [11]: Half life in mouse at 1 mg/kg, iv measured upto 24 hrs by LC-MS/MS analysis. The settings on record: in vivo. Type of data set: ADME, organism-based.
Data set [12] can be described thus: Cmax in mouse at 50 mg/kg, po measured upto 24 hrs by LC-MS/MS analysis. It counts as ADME, organism-based. The note with it: in vivo.
Data set [13] can be described thus: Oral bioavailability in mouse at 50 mg/kg measured upto 24 hrs by LC-MS/MS analysis. Type of data set: ADME, organism-based. The settings on record: in vivo.
In data set [14] the target is Protein arginine N-methyltransferase 5 (Homo sapiens, UniProt O14744). Nature of the data set: Inhibition of PRMT5 (unknown origin).
Data set [15] deals with T2, Histone-arginine methyltransferase CARM1 (Homo sapiens, UniProt Q86X55).
T2 sequence (Q86X55 whole entry): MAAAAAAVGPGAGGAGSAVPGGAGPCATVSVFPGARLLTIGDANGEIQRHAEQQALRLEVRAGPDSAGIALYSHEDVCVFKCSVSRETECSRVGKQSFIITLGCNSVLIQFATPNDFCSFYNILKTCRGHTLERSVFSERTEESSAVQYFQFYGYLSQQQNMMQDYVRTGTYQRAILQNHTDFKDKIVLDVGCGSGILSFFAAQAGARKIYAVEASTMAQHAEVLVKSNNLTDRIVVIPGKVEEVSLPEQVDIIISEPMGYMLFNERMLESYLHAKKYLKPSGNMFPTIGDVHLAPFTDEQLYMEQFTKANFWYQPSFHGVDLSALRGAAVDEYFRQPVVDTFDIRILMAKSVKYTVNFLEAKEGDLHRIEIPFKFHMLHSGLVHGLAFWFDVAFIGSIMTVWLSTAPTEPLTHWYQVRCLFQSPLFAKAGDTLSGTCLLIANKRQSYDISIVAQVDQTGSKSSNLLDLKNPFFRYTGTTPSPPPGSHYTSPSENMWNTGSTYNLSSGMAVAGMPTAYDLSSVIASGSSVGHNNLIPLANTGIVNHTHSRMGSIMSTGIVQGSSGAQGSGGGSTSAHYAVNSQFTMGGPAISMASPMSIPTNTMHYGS
Nature of the data set: Inhibition of PRMT4 (unknown origin).

The target of data set [16] is T3, Histone-lysine N-methyltransferase EHMT1 (Homo sapiens, UniProt Q9H9B1).
T3 sequence (Q9H9B1 whole entry): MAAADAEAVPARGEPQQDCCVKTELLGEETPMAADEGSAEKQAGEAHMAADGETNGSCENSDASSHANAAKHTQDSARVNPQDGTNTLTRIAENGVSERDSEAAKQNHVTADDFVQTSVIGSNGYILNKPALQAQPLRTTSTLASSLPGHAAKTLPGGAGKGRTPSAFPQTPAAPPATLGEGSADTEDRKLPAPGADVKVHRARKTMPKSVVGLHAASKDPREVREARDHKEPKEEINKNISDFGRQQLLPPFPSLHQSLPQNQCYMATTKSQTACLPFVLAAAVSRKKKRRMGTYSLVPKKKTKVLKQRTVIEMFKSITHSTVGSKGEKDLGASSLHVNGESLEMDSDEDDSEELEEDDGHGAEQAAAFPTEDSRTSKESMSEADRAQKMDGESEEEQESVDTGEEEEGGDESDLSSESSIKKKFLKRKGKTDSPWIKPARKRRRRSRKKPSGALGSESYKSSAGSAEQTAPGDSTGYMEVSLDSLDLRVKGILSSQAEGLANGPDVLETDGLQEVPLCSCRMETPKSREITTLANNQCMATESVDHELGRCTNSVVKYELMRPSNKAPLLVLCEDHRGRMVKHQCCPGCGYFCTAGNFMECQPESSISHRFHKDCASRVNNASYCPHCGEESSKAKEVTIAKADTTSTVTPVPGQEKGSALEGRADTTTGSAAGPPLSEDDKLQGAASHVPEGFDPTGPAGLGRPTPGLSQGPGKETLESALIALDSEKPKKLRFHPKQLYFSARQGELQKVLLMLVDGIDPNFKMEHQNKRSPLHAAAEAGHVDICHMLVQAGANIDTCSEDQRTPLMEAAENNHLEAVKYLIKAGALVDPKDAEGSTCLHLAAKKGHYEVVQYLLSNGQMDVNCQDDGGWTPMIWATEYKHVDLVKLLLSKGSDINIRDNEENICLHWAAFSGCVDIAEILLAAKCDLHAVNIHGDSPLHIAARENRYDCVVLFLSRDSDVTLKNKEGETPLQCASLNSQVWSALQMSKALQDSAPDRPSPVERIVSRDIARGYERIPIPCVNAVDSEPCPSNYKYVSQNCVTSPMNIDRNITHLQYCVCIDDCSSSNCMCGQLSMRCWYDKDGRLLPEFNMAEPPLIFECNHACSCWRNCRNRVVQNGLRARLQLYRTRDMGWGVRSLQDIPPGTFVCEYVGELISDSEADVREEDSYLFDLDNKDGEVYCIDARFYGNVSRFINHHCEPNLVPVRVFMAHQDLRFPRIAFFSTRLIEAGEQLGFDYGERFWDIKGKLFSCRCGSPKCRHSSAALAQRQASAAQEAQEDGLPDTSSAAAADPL
In words: Inhibition of GLP (unknown origin).

A short description of data set [17]: AUC (0 to infinity) in mouse at 1 mg/kg, iv measured upto 24 hrs by LC-MS/MS analysis. It counts as ADME, organism-based. The note with it: in vivo.
Data set [18] addresses Histone-lysine N-methyltransferase EZH2 (Homo sapiens, UniProt Q15910). In words: Inhibition of EZH2 (unknown origin).
The target in data set [19] is Histone-lysine N-methyltransferase 2B (Homo sapiens, UniProt Q9UMN6). In words: Inhibition of MLL4 (unknown origin).
Sequence of Histone-lysine N-methyltransferase 2B (Q9UMN6 whole entry): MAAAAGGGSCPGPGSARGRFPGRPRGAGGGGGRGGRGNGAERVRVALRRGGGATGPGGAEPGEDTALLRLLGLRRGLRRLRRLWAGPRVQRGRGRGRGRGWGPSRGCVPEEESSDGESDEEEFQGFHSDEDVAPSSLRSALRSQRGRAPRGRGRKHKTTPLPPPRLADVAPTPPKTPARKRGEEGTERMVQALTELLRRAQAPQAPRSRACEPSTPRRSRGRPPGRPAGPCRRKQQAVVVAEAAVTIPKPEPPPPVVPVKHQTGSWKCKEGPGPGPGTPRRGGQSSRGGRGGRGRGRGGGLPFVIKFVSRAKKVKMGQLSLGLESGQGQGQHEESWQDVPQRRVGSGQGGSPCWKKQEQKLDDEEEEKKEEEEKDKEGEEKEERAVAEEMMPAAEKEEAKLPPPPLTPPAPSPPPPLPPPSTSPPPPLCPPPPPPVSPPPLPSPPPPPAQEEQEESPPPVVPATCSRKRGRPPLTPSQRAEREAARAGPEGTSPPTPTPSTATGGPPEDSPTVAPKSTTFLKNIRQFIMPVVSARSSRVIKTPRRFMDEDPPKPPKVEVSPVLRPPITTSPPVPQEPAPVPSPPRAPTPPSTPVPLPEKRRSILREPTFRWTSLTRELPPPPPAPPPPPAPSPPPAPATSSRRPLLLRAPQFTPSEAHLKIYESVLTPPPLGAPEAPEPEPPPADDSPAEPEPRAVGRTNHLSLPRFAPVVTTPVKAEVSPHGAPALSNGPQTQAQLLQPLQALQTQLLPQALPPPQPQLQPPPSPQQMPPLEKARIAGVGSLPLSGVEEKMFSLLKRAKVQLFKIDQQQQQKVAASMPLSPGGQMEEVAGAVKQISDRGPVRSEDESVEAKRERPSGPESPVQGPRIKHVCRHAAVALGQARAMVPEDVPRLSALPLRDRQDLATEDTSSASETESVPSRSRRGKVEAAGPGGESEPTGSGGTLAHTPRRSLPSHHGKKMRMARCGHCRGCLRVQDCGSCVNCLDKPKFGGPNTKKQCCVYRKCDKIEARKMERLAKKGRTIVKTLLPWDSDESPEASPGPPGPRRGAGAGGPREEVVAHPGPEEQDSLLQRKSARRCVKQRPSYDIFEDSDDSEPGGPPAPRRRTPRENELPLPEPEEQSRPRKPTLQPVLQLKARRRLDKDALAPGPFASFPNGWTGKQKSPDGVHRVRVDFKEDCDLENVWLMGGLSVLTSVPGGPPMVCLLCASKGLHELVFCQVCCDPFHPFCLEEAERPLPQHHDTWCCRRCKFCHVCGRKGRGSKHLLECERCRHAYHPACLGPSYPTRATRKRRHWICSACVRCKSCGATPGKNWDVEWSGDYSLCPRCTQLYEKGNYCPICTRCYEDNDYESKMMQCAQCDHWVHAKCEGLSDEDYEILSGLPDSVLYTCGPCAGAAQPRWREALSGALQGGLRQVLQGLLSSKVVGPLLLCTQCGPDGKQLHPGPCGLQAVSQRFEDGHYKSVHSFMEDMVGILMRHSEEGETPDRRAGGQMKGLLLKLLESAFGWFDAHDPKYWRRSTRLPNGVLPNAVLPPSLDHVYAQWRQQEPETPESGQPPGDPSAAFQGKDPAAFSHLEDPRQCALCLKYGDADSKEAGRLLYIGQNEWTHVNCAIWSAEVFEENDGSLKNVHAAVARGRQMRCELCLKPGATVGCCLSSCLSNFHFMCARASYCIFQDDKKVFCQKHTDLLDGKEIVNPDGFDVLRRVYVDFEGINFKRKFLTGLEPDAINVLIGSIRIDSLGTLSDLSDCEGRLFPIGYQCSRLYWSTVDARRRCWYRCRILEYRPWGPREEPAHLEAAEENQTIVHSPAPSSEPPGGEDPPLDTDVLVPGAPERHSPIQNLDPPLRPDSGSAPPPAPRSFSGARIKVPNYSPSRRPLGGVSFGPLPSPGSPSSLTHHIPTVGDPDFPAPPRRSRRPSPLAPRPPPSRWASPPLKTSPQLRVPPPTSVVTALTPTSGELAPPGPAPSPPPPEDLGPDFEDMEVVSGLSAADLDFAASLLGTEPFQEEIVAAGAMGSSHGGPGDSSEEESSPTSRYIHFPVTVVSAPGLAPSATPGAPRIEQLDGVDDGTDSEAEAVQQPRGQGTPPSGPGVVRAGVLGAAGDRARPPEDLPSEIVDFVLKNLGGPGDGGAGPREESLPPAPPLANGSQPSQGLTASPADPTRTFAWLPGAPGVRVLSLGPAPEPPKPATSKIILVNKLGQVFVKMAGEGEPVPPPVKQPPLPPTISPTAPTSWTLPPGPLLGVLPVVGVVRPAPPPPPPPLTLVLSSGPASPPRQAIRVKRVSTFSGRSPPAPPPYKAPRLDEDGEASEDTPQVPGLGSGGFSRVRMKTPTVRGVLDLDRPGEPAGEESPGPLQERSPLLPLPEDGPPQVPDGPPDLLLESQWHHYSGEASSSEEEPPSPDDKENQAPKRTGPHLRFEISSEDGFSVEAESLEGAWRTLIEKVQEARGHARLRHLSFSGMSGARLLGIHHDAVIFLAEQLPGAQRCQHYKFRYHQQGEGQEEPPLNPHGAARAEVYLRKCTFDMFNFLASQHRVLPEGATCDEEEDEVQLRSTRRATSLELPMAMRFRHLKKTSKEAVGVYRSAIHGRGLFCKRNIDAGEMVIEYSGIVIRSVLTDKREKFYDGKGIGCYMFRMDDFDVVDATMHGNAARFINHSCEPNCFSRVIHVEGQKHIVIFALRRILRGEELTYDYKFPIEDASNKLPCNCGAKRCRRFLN
Data set [20] is described as follows: Toxicity in female NU/NU mouse xenografted with human RS4-11 cells assessed as change in body weight at 50 mg/kg, po administered for 21 days. The settings on record: in vivo, 504 h, time 21 day. It counts as organism-based.
Data set [21] addresses Histone-lysine N-methyltransferase 2A (Homo sapiens, UniProt Q03164). Nature of the data set: Inhibition of MLL1 (unknown origin).
Data set [22] can be described thus: AUC (0 to infinity) in mouse at 50 mg/kg, po measured upto 24 hrs by LC-MS/MS analysis. Type of data set: ADME, organism-based. The settings on record: in vivo.

Structures are written as SMILES. Some results are limits rather than exact numbers.

Sequence of DNA (cytosine-5)-methyltransferase 1 (P26358 whole entry): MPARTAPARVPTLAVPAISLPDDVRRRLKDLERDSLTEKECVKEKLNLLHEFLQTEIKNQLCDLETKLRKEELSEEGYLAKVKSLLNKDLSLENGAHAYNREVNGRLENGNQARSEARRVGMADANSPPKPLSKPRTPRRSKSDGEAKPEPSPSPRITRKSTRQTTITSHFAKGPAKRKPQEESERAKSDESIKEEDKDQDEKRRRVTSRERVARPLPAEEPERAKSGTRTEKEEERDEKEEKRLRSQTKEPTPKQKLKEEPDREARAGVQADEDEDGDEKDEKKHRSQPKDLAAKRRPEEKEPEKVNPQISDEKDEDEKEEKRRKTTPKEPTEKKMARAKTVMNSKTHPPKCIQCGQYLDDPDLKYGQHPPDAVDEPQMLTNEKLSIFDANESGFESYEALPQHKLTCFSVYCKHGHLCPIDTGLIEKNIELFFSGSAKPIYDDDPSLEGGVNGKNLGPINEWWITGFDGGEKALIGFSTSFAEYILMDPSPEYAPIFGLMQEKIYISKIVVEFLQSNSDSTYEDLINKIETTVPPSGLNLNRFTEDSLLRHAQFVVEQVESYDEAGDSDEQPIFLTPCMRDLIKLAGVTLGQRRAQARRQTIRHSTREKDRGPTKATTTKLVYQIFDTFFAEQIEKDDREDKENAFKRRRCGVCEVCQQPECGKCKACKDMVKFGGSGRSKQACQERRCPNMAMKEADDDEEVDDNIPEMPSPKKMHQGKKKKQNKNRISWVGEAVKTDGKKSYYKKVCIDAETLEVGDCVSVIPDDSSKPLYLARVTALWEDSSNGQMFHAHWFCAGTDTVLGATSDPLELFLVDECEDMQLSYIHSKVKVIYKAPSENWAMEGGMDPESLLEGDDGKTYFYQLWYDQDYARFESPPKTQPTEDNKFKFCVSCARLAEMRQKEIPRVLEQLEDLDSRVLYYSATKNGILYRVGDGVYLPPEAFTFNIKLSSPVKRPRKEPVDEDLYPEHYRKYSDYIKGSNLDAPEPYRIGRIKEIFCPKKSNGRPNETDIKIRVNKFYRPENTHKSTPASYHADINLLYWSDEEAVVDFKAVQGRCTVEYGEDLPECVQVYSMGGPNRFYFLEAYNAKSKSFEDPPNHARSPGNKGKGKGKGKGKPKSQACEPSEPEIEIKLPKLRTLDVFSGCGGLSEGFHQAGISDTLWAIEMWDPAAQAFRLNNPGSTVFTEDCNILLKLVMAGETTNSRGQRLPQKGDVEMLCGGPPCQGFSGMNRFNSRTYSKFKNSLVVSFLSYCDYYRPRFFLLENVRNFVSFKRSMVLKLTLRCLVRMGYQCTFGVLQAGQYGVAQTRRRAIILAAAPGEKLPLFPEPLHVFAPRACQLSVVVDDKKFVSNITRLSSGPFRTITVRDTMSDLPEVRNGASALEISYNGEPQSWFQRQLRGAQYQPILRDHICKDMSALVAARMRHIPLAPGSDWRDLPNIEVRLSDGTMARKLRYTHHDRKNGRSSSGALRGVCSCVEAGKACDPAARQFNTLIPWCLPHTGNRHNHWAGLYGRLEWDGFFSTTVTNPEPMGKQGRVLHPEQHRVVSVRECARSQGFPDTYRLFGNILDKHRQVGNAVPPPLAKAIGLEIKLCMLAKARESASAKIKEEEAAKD

Broadly, the IC50 is the midpoint of a concentration-inhibition curve. Low readings indicate higher potency, high ones lower potency. Compound `COc1cc(F)c(-c2cc(Cn3cnc4c(N)ncnc43)c(N3CCC[C@](N)([C@H](O)C(F)F)C3)cn2)cc1F` gave an IC50 in data set [1] of less than 0.1 µM.

What is called MRT last is the average time that molecules of a dose stay in the body. As usually defined, the Cmax is the maximum level reached in the sampled fluid or tissue. The half-life is the time in which the quantity being followed falls by half. In general, bioavailability refers to the share of a dose that reaches the circulation, judged against a reference dose that is usually intravenous. A high value points to good availability. Usually AUC stands for concentration integrated over time. A low value points to low exposure. Take `COc1cc2c(NC3CCN(C(C)C)CC3)nc(C#N)nc2cc1OCCCN1CCOCC1`: the AUClast in [2] was determined as 123.9 ng·h/mL; in data set [7] it was 1694.02 ng·h/mL. Moreover, in data set [3], the Vd came to 46 L/kg. Further, the MRT last at 24 h in data set [4] stood at 6.12 h; in data set [6] it was 5.3 h. Besides, the IC50 in data set [5] was more than 10 µM; in data set [10] it was more than 10 µM; in [14], more than 10 µM; in data set [15] it was 8.96 µM; in data set [16], more than 10 µM; in data set [18], more than 10 µM. Also, the IC50 in data set [19] and in data set [21] was more than 10 µM throughout. For the same compound, the Cmax in data set [8] is 280 nM; in [12] it was 1160 nM. In addition, the half-life in data set [9] is 6.35 h. Moreover, the t1/2 in data set [11] was 8 h. For the same compound, in [13], the bioavailability came to 27.3%. In addition, the AUC in data set [17] was 134 ng·h/mL; in data set [22], 1760 ng·h/mL. For the same compound, the Activity result in [20] was “Non-Toxic”.
